# According to US20240238310A1, “MODULATION OF SEX STEROID HORMONE PRODUCTION AND ACTIVITY FOR TREATING AND PREVENTING HERNIAS” (Northwestern University, priority 2020, published 2024):
# Molecular target: T1, ERα (Mus musculus, UniProt P19785)
# T1 construct: ERα in LAMT is almost exclusively expressed in fibroblasts; endogenous in cells; host or cells: primary LAMT fibrosis-associated fibroblasts (passage 0) from 4-week-old Arom^hum (FVB/N background) male mice
# T1 sequence (P19785 1-599): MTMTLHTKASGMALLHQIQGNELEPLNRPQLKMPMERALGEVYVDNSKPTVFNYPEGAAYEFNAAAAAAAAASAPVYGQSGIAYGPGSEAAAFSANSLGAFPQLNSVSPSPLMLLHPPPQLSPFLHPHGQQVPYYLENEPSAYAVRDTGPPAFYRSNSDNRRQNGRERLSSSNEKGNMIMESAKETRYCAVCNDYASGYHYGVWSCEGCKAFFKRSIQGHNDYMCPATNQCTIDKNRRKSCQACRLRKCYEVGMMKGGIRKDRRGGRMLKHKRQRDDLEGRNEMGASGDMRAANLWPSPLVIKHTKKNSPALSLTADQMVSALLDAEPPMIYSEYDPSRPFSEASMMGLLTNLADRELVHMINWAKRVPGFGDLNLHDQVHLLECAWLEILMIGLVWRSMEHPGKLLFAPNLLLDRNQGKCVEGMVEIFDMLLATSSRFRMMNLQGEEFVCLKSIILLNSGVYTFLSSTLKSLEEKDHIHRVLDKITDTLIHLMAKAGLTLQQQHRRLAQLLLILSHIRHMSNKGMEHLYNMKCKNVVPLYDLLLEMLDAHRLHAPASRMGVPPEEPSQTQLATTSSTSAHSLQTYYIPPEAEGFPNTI
# Experiment: ERα ChIP-seq, histone ChIP-seq and RNA-seq in LAMT FAFs treated with E2 or fulvestrant (planned)
# Type: cell-based
# Settings: expected result (Aim 1); fulvestrant 10^−7 M, 24 h
# Source text: Early herniation in Arom^hum mice usually become visible around 4 weeks of age (FIG. 5). Thus, we will isolate LAMT transformed FAFs at 4 weeks of age. We routinely culture primary fibroblast cells from LAMT of both WT and Arom^hum mice (FIGS. 6-9). The quantity of FAFs (>10^7 cells/Arom^hum mouse) is sufficient for performing the proposed experiments. Previously, we successfully used two antibodies for ERα ChIP-seq or other genome-wide ChIP approaches^84, 85. We will perform optimization studies (ChIP-western and conventional ChIP) with both antibodies in primary muscle fibroblasts and use the most suitable antibody for ChIP-seq^84. […] Library quality will be assessed using the Agilent 2100 Bioanalyzer. Sequencing will be performed at the Next-Generation Sequencing Core at Northwestern to obtain 30 million single-end 75-bp reads per sample. […]
# Experiment 1b2: We will perform RNA-seq at 40 million reads per sample on the 12 LAMT FAF samples treated for 24 h with vehicle, E2 (10^−8M), or fulvestrant (10^-7 M) (n=4 mice/group). […] The RNA-seq data will be evaluated using pathway analysis and gene enrichment strategies with respect to the differentially expressed (DE) transcripts/genes induced by E2 and reversed by fulvestrant.
# Bioinformatics analysis for ChIP-seq, RNA-seq, and their integration. […] The differential binding (DB) sites will be detected using csaw^89. […]
smiles,measurement,value
C[C@]12CC[C@@H]3c4ccc(O)cc4C[C@@H](CCCCCCCCC[S+]([O-])CCCC(F)(F)C(F)(F)F)[C@H]3[C@@H]1CC[C@@H]2O (stereo partly shown) [fulvestrant],"E2-induced ERα binding, histone modification and gene expression profiles in LAMT FAFs","will block or partially reverse E2-induced ERα binding and histone modification, and alter gene expression profiles"
